Laboratory results from article PMC7284918, “In-Depth Characterization of EpiIntestinal Microtissue as a Model for Intestinal Drug Absorption and Metabolism in Human” (Pharmaceutics, 2020).

What was measured:
UGT [1] = assay: DME activity in Caco-2: UGT; assay type: in vitro ADME, human; conditions: UGT/7-OH-Coumarin, metabolite 7-OH-Coumarin-Glucuronid
Experimental: (§2) For measurements of DME activities in EpiIntestinal microtissues and Caco-2 cells, both were cultured in 96-well Transwell inserts. Drugs (Table 1) were dissolved in the respective solvent at 200x concentration and diluted in a pre-warmed transport buffer. Diluted substrate solution was applied to the apical (100 µL) and basal (250 µL) compartment of the Transwell and incubated at 37 °C and 5% CO2 and 60 rpm continuous shaking. DME activities were determined by monitoring metabolite formation in basal compartment over time (0, 0.5, 1, 2, 3 and 4 h) with LC-MS/MS. […] Chromatographic separation of samples was performed on YMC Triart C18 (1.9 µm, 30 × 2 mm; YMC Europe, Dinslaken, Germany) LC analytical column. Quantification of all metabolites listed in Table 1 was achieved by the use of calibration curves for the individual metabolites with appropriate concentration ranges.
(§3) A total of 10 µL of the incubation sample were diluted with 90 µL of water containing 10–20% ACN or methanol, 0.1% formic acid and the respective internal standard. To analyze the intracellular metabolite concentration, cells on Transwell inserts were washed twice with ice-cold PBS and stored at −80 °C for 20 min. Afterwards, 150 µL 50% ACN diluted with transport buffer was added to the cells and incubated at room temperature for 30 min. […]

SULT [2] = assay: DME activity in Caco-2: SULT; assay type: in vitro ADME, human; conditions: SULT/7-OH-Coumarin, metabolite 7-OH-Coumarin-Sulfat
Experimental: as §2, §3

UGT [3] = assay: DME activity in EpiIntestinal microtissues: UGT; assay type: in vitro ADME, human; conditions: UGT/7-OH-Coumarin, metabolite 7-OH-Coumarin-Glucuronid
Experimental: as §2, §3

SULT [4] = assay: DME activity in EpiIntestinal microtissues: SULT; assay type: in vitro ADME, human; conditions: SULT/7-OH-Coumarin, metabolite 7-OH-Coumarin-Sulfat
Experimental: as §2, §3

CYP2D6 [5] = biological target: T1, CYP2D6 (Homo sapiens, UniProt P10635); assay: DME activity in Caco-2: CYP2D6; assay type: in vitro ADME; conditions: CYP2D6/Dextromethorphan, metabolite Dextrorphan
T1 construct: endogenous in cells; host or cells: Caco-2 cells in 96-well Transwell inserts
T1 sequence (P10635 whole entry): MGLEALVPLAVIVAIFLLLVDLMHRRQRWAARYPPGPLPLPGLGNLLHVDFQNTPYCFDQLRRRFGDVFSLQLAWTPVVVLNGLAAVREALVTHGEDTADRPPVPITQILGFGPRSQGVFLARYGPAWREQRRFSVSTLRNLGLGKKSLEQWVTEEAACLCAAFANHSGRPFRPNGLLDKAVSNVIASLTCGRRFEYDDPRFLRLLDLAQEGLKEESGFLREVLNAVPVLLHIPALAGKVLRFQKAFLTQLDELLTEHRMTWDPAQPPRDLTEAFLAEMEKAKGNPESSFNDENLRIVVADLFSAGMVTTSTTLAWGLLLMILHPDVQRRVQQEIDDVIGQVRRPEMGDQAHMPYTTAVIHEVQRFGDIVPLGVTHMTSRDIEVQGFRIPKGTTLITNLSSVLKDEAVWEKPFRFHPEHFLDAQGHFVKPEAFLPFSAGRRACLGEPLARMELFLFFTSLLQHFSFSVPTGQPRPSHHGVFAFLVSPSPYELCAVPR
Experimental: as §2, §3

CYP2D6 [6] = biological target: T1, CYP2D6; assay: DME activity in EpiIntestinal microtissues: CYP2D6; assay type: in vitro ADME; conditions: CYP2D6/Dextromethorphan, metabolite Dextrorphan
Experimental: as §2, §3

in vitro = conditions: human, blood
Description: Blood CLb can be converted from plasma clearance CLp with the blood-to-plasma ratio RB: CLb=CLp/RB

[7] = human, clinical; cited from earlier work
[8] = test system: EpiIntestinal microtissues; assay: Bidirectional permeability assay in EpiIntestinal microtissues; assay type: in vitro ADME, human
Experimental: Caco-2 cells were obtained from Leibniz Institute DSMZ-German Collection of Microorganisms and Cell Cultures (Braunschweig, Germany) and cultured in DMEM containing 10% FCS, 1% NEAA, 2 mM Glutamin, 100 U/mL Penicillin and 100 µg/mL Streptomycin. […] EpiIntestinal microtissues were obtained from MatTek (Bratislav, Slovakia) and cultured according to the manufacturer’s instruction (24-well format for bidirectional permeability assays and GI firstpass availability assays and 96-well format for screening of DME activities).
Bidirectional permeability assays were performed as described previously. […] In indicated experiments, inhibitors were added to both compartments. Cells were incubated with the compounds for up to 2 h. Samples from the opposite compartment were taken at different timepoints. […] Prior to bioanalysis samples were spiked with internal standard solution and diluted with acetonitrile (ACN) for protein precipitation. Measurement was operated in multiple reaction monitoring (MRM) mode. Quantification was performed using external calibration. Apparent permeability coefficients in the apical to basal direction (Papp,AB) and in the basal to apical direction (Papp,BA) and efflux were calculated as follows Papp,AB=QAB/(C0×s×t) Papp,BA=QBA/(C0×s×t) Efflux=Papp,BA/Papp,AB where Q is the amount of compound recovered in the receiver compartment after the incubation time t, C0 the initial compound concentration given to the donor compartment, and s the surface area of the Transwell inserts. Efflux ratio is calculated as the quotient of Papp,BA to Papp,AB. […] In addition, Transepithelial electrical resistance (TEER) values are measured for each plate before the permeability assay and total recovery in donor and receiver compartments was determined for each compound. All these parameters (efflux of apafant, Papp values of the low permeable compound, TEER values, and total recovery) are used to ensure the quality of the assays.

[9] = Intestinal first-pass availability in EpiIntestinal microtissues; assay type: in vitro ADME, human; conditions: human, EpiIntestinal microtissues, 10 µM apical, GI firstpass availability, read-out: Recovery in Basal Comp. @ 24h (%)
Experimental: Compounds were diluted in culture media to a final concentration of 10 µM and added to the apical (donor) compartment (total volume: 100 µL for EpiIntestinal and 200 µL for Caco-2). After the incubation at 37 °C for 2, 4, 6, and 24 h, samples (50 µL) were taken from the basal (receiver) compartment (total volume: 5000 µL for EpiIntestinal and 800 µL for Caco-2). After the last timepoint, samples from the donor compartments and the cell lysates were also collected. Compound concentrations in the samples were determined by HPLC-MS/MS (Section 2.3).
GI first-pass availability of the tested compounds was expressed as fraction (%) of the total amount of a compound added to the donor compartment recovered in the receiver compartment.

Caco-2 cells = assay: Bidirectional permeability assay in Caco-2; assay type: in vitro ADME, human; conditions: with P-gp inhibitor Zosuqidar (5 µM)
BCRP = assay: Bidirectional permeability assay in Caco-2; assay type: in vitro ADME, human; conditions: human, pH 7.4, with Ko-143 (3 µM), with BCRP inhibitor Ko-143 (3 µM)
[10] = Bidirectional permeability assay in Caco-2; assay type: in vitro ADME, human; conditions: human, no inhibitor, mean of duplicates
P-gp = assay: Bidirectional permeability assay in Caco-2; assay type: in vitro ADME, human; conditions: human, pH 7.4, with Zosuqidar (5 µM), with P-gp inhibitor Zosuqidar (5 µM)
CES1 and CES2 [11] = assay: CES-mediated metabolism of dabigatran etexilate in human intestinal mucosa (HIM); assay type: in vitro ADME; conditions: human intestinal mucosa in suspension; 2 µM
Experimental: (§1) CES-mediated metabolism of dabigatran etexilate was measured in cryopreserved human hepatocytes (BioIVT, West Sussex, UK) and cryopreserved human intestinal mucosa (in vitro ADMET laboratories, Columbia, MD, USA) in suspension and in Caco-2 cells and EpiIntestinal microtissues grown on Transwell inserts. Dabigatran etexilate was diluted in culture media for the respective cells or tissues. The final concentrations of dabigatran etexilate were selected in an earlier experiment to ensure reasonable turnover of the compound within the incubation time: 2 µM for hepatocytes and intestinal mucosa, 10 µM for Caco-2 and EpiIntestinal microtissues. In the experiments with Transwell inserts, dabigatran etexilate was given to the apical compartments, metabolites were measured in the basal (receiver) compartments. Concentrations of the metabolites were determined by HPLC-MS/MS (Section 2.3).

CES1 and CES2 [12] = assay: CES-mediated metabolism of dabigatran etexilate in EpiIntestinal microtissues; assay type: in vitro ADME, human; conditions: EpiIntestinal on Transwell; 10 µM apical; basal compartment
Experimental: as §1

CES1 and CES2 [13] = assay: CES-mediated metabolism of dabigatran etexilate in human hepatocytes (huHEP); assay type: in vitro ADME; conditions: human hepatocytes in suspension; 2 µM
Experimental: as §1

CES1 and CES2 [14] = assay: CES-mediated metabolism of dabigatran etexilate in Caco-2 cells; assay type: in vitro ADME, human; conditions: Caco-2 on Transwell; 10 µM apical; basal compartment
Experimental: as §1

[15] = with BCRP inhibitor Ko-143 (3 µM)
[16] = with P-gp inhibitor Zosuqidar (5 µM)

**Q.** What does the source list for `O=c1ccc2ccc(O)cc2o1` [7-OH-Coumarin]?
**A.** Intracellular Metabolite (% of Total) (UGT [1]): 5.5 % of Total; Intracellular Metabolite (% of Total) (SULT [2]): BLQ; Intracellular Metabolite (% of Total) (UGT [3]): 10.0 % of Total; Intracellular Metabolite (% of Total) (SULT [4]): 3.4 % of Total

**Q.** For `COc1ccc2c(c1)[C@]13CCCC[C@@H]1[C@H](C2)N(C)CC3` [Dextromethorphan], which “Intracellular Metabolite (% of Total)” value (CYP2D6 [5]) is on record?
**A.** BLQ

**Q.** And the “Intracellular Metabolite (% of Total)” value (CYP2D6 [6])?
**A.** BLQ

**Q.** With `CC(C)c1nc(N(C)S(C)(=O)=O)nc(-c2ccc(F)cc2)c1/C=C/[C@@H](O)C[C@@H](O)CC(=O)O` [Rosuvastatin] as the molecule, how does the blood plasma ratio (in vitro) read?
**A.** 0.75

**Q.** What about the “F (total oral availability)” value [7] of the same molecule?
**A.** 0.2 [8]

**Q.** What about the “fe (fraction of renal excretion)” value [7] of the same molecule?
**A.** 0.3 [23]

**Q.** And the Efflux ([8]; Papp,BA/Papp,AB, no inhibitor, mean of triplicates)?
**A.** 100.0

**Q.** What about the Efflux [8, 15] of the same molecule?
**A.** 3.1

**Q.** And the PappAB [8, 15]?
**A.** 2.6 10^−6 cm/s

**Q.** What about the Efflux [8, 16] of the same molecule?
**A.** 25

**Q.** What about the PappAB [8, 16] of the same molecule?
**A.** 0.9 10^−6 cm/s

**Q.** What about the recovery at 24 h, 10 µM [9] of the same molecule?
**A.** 30%

**Q.** What about the PappAB (Caco-2 cells) of the same molecule?
**A.** 0.3 10^−6 cm/s

**Q.** What about the efflux ratio at 10 µM (BCRP) of the same molecule?
**A.** 5.5

**Q.** And the Papp A→B at 10 µM ([10]; pH 7.4, 10 µM)?
**A.** 0.3 ×10⁻⁶ cm/s

**Q.** And the efflux ratio at 10 µM ([10]; pH 7.4, Papp,BA/Papp,AB)?
**A.** 21

**Q.** What about the efflux ratio at 10 µM (P-gp) of the same molecule?
**A.** 19

**Q.** For `CCCCCCOC(=O)NC(=N)c1ccc(NCc2nc3cc(C(=O)N(CCC(=O)OCC)c4ccccn4)ccc3n2C)cc1` [dabigatran etexilate], which “Main metabolite of dabigatran etexilate” value (CES1 and CES2 [11]) is on record?
**A.** BIBR 951

**Q.** And the “Main metabolite of dabigatran etexilate” value (CES1 and CES2 [12])?
**A.** BIBR 953

**Q.** What about the “Main metabolite of dabigatran etexilate” value (CES1 and CES2 [13]) of the same molecule?
**A.** BIBR 1087

**Q.** And the “Main metabolite of dabigatran etexilate” value (CES1 and CES2 [14])?
**A.** BIBR 1087
